Values of other authors in patent US5041644A, “Peptide derivatives of β-chloro-L(Z)-dehydro-glutamic acid” (Merck & Co., Inc., priority 1987, dated 1991).

Columns and labels:
[1] = system: D-Alanyl-D-Alanine ligase (synthetase); conditions: at both the donor and acceptor sites; most potent ligase inhibitor described heretofore
[2] = system: Micrococcus luteus; conditions: very narrow antibacterial spectrum; activity practically limited only to Micrococcus luteus

| inhibition of the ligase [1] | Compound | antibacterial activity [2] |
| --- | --- | --- |
| reversible inhibitor | N[C@@H]1CONC1=O [D-Cycloserine] | – |
| – | N[C@@H](C(=O)O)/C(Cl)=C/C(=O)O [β-chloro-L-(Z)-dehydroglutamic acid] | shows an antibacterial activity |
